Assays:
[1] = test system: milk-derived extracellular vesicles; experiment: Gel filtration comparison with compound of Patent Literature 1 (Example 17 / Comparative example 4); settings: reaction time 3 hours at room temperature
Description: The present applicant has disclosed GIF-2250 illustrated below in Patent Literature 1. GIF-2250 differs from the compounds of the present application in that the portion indicated by “→” is NH. First, the effect of this difference in structure provided on size separation using gel filtration was observed. Note that the synthesis procedure of GIF-2250 is disclosed in Patent Literature 1. The features disclosed in Patent Literature 1 are incorporated in the present specification by reference in its entirety.
Experiments were performed in the same procedure as in Example 10 except that GIF-2276 and GIF-2250 (Comparative example 4), which is disclosed in Patent Literature 1, were used and the reaction time was 3 hours at room temperature. FIG. 8 illustrates a graph in which respective experimental results are overlapped.

[2] = test system: milk-derived extracellular vesicles; experiment: Staining of milk-derived extracellular vesicles with heat treatment, gel filtration analysis (Example 11 / Comparative example 2); settings: untreated vs 80° C. for 5 minutes or 15 minutes
Method: Experiments were performed in the same procedure as in Example 10 except that, after the staining agent was added to the extracellular vesicle preparation liquid in Example 10, the mixture was immediately analyzed with a column (untreated), the mixture was analyzed after treated at 80° C. for 5 minutes, or the mixture was analyzed after treated at 80° C. for 15 minutes. Note that the compounds used in the experiments of Example 11 are labeled with the GIF numbers in the graphs.
Experiments were performed in the same procedure as in Comparative example 1 except that, after the staining agent was added to the extracellular vesicle preparation liquid in Comparative example 1, the mixture was immediately analyzed with a column (untreated), the mixture was analyzed after treated at 80° C. for 5 minutes, or the mixture was analyzed after treated at 80° C. for 15 minutes.

[3] = test system: extracellular vesicles of pasteurized milk; experiment: Correlation between gel filtration and plate reader detection of extracellular vesicles (Example 17 (2))
Method: Patent Literature 1 discloses that the use of GIF-2250 enables quantification of extracellular vesicles by a plate reader. The correlation between detection of extracellular vesicles by a plate reader with the use of GIF-2250 and detection of extracellular vesicles by gel filtration with the use of GIF-2276 synthesized in Example 1 was examined.
Pasteurized milk (Takanashi) was heated at 60, 70, and 80° C. for 30 minutes and cooled back to room temperature. The extracellular vesicles were then prepared by the procedure described in Example 10, and the pasteurized milk was added thereto so that the final concentration of GIF-2276 synthesized in Example 1 became 1 μM to label the extracellular vesicles. The mixture was analyzed by a high-performance liquid chromatography gel filtration system to find the area of the peak. Extracellular vesicles prepared in the same manner reacted with 3 μM of GIF-2250 to find the fluorescence quantity by using a fluorescent plate reader. Respective values were plotted to find a correlation.

[4] = test system: milk-derived extracellular vesicles; experiment: Staining of milk-derived extracellular vesicles, analysis by high-performance liquid chromatography gel filtration system (Example 10 / Comparative example 1); settings: staining agent 1 μM, room temperature 12 hours
Method: Commercially available pasteurized milk (by Seki milk or Takanashi) of 1 L was centrifuged at 8000 rpm for 30 minutes, and the supernatant was filtrated by a coffee filter. Subsequently, acetic acid was added thereto to be 1%, and the mixture was further centrifuged at 8000 rpm for 30 minutes. The supernatant thereof was further filtrated by a coffee filter. The liquid obtained after the filtration was filtrated by a filter of 0.45 μm (by Sartorius), and the filtrate was filtrated by a filter of 0.1 μm (by Sartorius). Since extracellular vesicles remain on the filter of 0.1 μm, the extracellular vesicles were washed with 5 mL of phosphate buffer solution three times. Eventually, extracellular vesicles were collected with 1 mL of phosphate buffer solution. Further, 10 μL of the purified extracellular vesicle liquid was diluted with 40 μL of phosphate buffer solution (hereafter, referred to as “extracellular vesicle preparation liquid”)
Compounds 1 to 9 synthesized in Examples 1 to 9 were diluted with DMSO to produce a staining agent used in Example 10.
ExoSparkler Exosome Membrane Labeling Kit-Red (ExoSP Model No. EX02, by Dojin) was diluted with a DMSO solution in accordance with the instructions for use to produce a staining agent of Comparative example 1.
The staining agent produced in Example 10 was added to an extracellular vesicle preparation liquid so that the final concentration of the staining agent became 1 μM. Further, 1 μL of the staining agent produced in Comparative example 1 was added to an extracellular vesicle preparation liquid. In Example 10 and Comparative example 1, the staining agent was added to the extracellular vesicle preparation liquid and then allowed to stand at room temperature for 12 hours. After 12 hours elapsed, 10 μL of the reaction product was analyzed by a high-performance liquid chromatography gel filtration system. […] Detection was performed on ExoSP at 560 nm for excitation and 600 nm for fluorescence detection and was performed on the compounds synthesized in Examples 1 to 8 at 480 nm for excitation and 530 nm for fluorescence detection. […]

HEK293 cells [5] = experiment: Tracking of labeled milk-derived extracellular vesicles introduced into cells (Example 15); format: cell-based
Method: (§1) The milk-derived extracellular vesicles (exosomes) prepared in the procedure of Example 10 were stained with GIF-2276 at room temperature for 12 hours to label the extracellular vesicles. Unreacted GIF-2276 was removed by Microcon 300K (by Millipore). Lysosomes in HEK293 cells (ThermoFisher) were labeled with LysoBrite Red, and GIF-2276-labeled milk-derived extracellular vesicles were added thereto. After 3 hours, the mixture was observed by a microscope. FIG. 6 illustrates the result. The upper left “2276” in FIG. 6 is a fluorescent photograph of the extracellular vesicles labeled with GIF-2276. The upper right “LysoBright” in FIG. 6 is a fluorescent photograph of the lysosomes labeled with LysoBrite Red. The lower left in FIG. 6 is a photograph obtained by merging the fluorescent photograph of the extracellular vesicles labeled with GIF-2276 and the fluorescent photograph of the lysosomes labeled with LysoBrite Red. The lower right in FIG. 6 is a photograph of HEK293 cells captured in visible light.

HEK293 cells [6] = experiment: Tracking of labeled lactic acid bacteria (Yakult)-derived extracellular vesicles introduced into cells (Example 16); format: cell-based
Method: as §1
Experiments were performed in the same procedure as in Example 15 except that, instead of milk-derived extracellular vesicles, lactic acid bacteria (Yakult)-derived extracellular vesicles were used. FIG. 7 illustrates the result.

[7] = test system: lactic acid bacteria (Yakult)-derived extracellular vesicles; experiment: Staining of lactic acid bacteria (Yakult)-derived extracellular vesicles, gel filtration analysis (Example 14 / Comparative example 3); settings: staining agent 1 μM, room temperature 12 hours
Method: The staining agent produced in Example 10 was added to an extracellular vesicle preparation liquid so that the final concentration of the staining agent became 1 μM. Further, 1 μL of the staining agent produced in Comparative example 1 was added to an extracellular vesicle preparation liquid. In Example 10 and Comparative example 1, the staining agent was added to the extracellular vesicle preparation liquid and then allowed to stand at room temperature for 12 hours. After 12 hours elapsed, 10 μL of the reaction product was analyzed by a high-performance liquid chromatography gel filtration system. As the eluent for the column, 10 mM of Tris (pH 6.8), 0.25 mM of EDTA, and 50 mM of NaCl were used. Detection was performed on ExoSP at 560 nm for excitation and 600 nm for fluorescence detection and was performed on the compounds synthesized in Examples 1 to 8 at 480 nm for excitation and 530 nm for fluorescence detection. A column having 3 cm of Gen 2 qEV original/70 nm (by iZQN) and Shodex OHpak SB-807 (by Showa denko) connected to each other was used.
Next, experiments using various lactic fermenting beverages were performed. As the lactic fermenting beverage, A: Yakult (by Yakult), B: Onakayorokobu lactic acid bacteria (by Kurashimoa), and C: Pirkle (by Nissin Foods) were used. Each 500 mL of the lactic fermenting beverages of A to C listed above was centrifuged at 8000 rpm for 30 minutes, and the supernatant was filtrated by a coffee filter. The liquid obtained after the filtration was filtrated by a filter of 0.45 μm (by Sartorius), and the filtrate was filtrated by a filter of 0.033 μm (by GVS). Since extracellular vesicles remain on the filter of 0.033 μm, the extracellular vesicles were washed with 5 mL of phosphate buffer solution three times. Eventually, extracellular vesicles were collected with 1 mL of phosphate buffer solution. […]

For `CN(C)c1ccc(CCCN(C)C2CCc3cc(OCCNc4ccc([N+](=O)[O-])c5nonc45)ccc32)cc1` (stereo not shown) [GIF-2250, reference compound], which “peak of milk-derived extracellular vesicles in gel filtration” value [1] is on record?
The value was “no peak of milk-derived extracellular vesicles was found”.

For `CN(C)c1ccc(CN(C)C2CCc3cc(OCCn4cc(CCOc5ccc([N+](=O)[O-])c6nonc56)nn4)ccc32)cc1` (stereo not shown) [GIF-2274], which “effect of heat treatment on fluorescence intensity” value [2] is on record?
The value was “significant increase in the fluorescence intensity due to heat treatment”.

For `CN(C)c1ccc(CCCN(C)C2CCc3cc(OCCOc4ccc([N+](=O)[O-])c5nonc45)ccc32)cc1` (stereo not shown) [GIF-2276], which “effect of heat treatment on fluorescence intensity” value [2] is on record?
Its value is “significant increase in the fluorescence intensity due to heat treatment”.

And the “quantification of extracellular vesicles by plate reader” value ([3]; depiction omitted)?
The value was “successfully quantified”.

What about the “correlation of gel filtration peak area (GIF-2276) with plate reader fluorescence intensity (GIF-2250)” value ([3]; milk heated at 60, 70, 80° C. for 30 minutes, GIF-2276 1 μM, GIF-2250 3 μM) of the same molecule?
The value was “high correlation”.

What about the “sensitivity order in staining of pasteurized milk extracellular vesicles” value [4] of the same molecule?
Its value is “highest in the order of GIF-2281, GIF-2280, and GIF-2276”.

What about the “peak of milk-derived extracellular vesicles in gel filtration” value [1] of the same molecule?
Its value is “a clear peak due to the size of milk-derived extracellular vesicles was found”.

And the “tracking of labeled extracellular vesicles in cells” value (HEK293 cells [5]; HEK293 cells, after 3 hours)?
Its value is “can be tracked in the cells to which the same was introduced”.

And the “localization of signals of labeled extracellular vesicles in cells” value (HEK293 cells [5]; lysosomes labeled with LysoBrite Red, microscope after 3 hours)?
The value was “most of signals from extracellular vesicles are localized in the lysosomes”.

What about the “tracking of labeled extracellular vesicles in cells” value (HEK293 cells [6]) of the same molecule?
Its value is “can be tracked in the cells to which the same was introduced”.

What does the source list for `CN(C)c1ccc(CCCN(C)C2CCc3cc(OCCOCCOc4ccc([N+](=O)[O-])c5nonc45)ccc32)cc1` (stereo not shown) [GIF-2277]?
effect of heat treatment on fluorescence intensity [2]: significant increase in the fluorescence intensity due to heat treatment; sensitivity order in staining of lactic acid bacteria extracellular vesicles [7]: highest in the order of GIF-2277, GIF-2281, and GIF-2282

How did the “sensitivity order in staining of pasteurized milk extracellular vesicles” value [4] turn out when `CN(C)c1ccc(CCCN(C)C2CCc3cc(OCCCCCCOc4ccc([N+](=O)[O-])c5nonc45)ccc32)cc1` (stereo not shown) [GIF-2280] was run?
The value was “highest in the order of GIF-2281, GIF-2280, and GIF-2276”.

How did the “sensitivity order in staining of lactic acid bacteria extracellular vesicles” value [7] turn out when `CN(CCCc1ccc(N(C)C)cc1)Cc1ccc(OCCOc2ccc([N+](=O)[O-])c3nonc23)cc1` [GIF-2281] was run?
The value was “highest in the order of GIF-2277, GIF-2281, and GIF-2282”.

And the “sensitivity order in staining of pasteurized milk extracellular vesicles” value [4]?
The value was “highest in the order of GIF-2281, GIF-2280, and GIF-2276”.

Which “sensitivity order in staining of lactic acid bacteria extracellular vesicles” value [7] does the source give for `CN(C)c1ccc(CCCN(C)C2CCc3cc(OCCOCCOCCOCCOc4ccc([N+](=O)[O-])c5nonc45)ccc32)cc1` (stereo not shown) [GIF-2282] here?
Its value is “highest in the order of GIF-2277, GIF-2281, and GIF-2282”.

Reference: patent US20260079084A1, “COMPOUND, EXTRACELLULAR VESICLE STAINING AGENT, AND FLUORESCENT STAINING METHOD FOR EXTRACELLULAR VESICLES” (National University Corporation Tokai National Higher …, priority 2022, published 2026)
